Usually pKd stands for the negative decadic logarithm of the Kd, by convention in mol/L.

Test [1] has as its target T1, recombinant RACK1A protein (Oryza sativa subsp. japonica, UniProt Q6L4F8).
T1 construct: His tag (C); made in house; host or cells: E. coli BL21(DE3)
The test is described as follows: Surface Plasmon Resonance (SPR) binding assay. More on the design: species or system rice. As to conditions: immobilized recombinant RACK1A, KD50=kd/ka. As for the experimental part:
SD-29 (left panel) and SD-29-12 (right panel) were separately injected three times on the CM5 chip at 0, 1.56 μM, at 3.13 μM, 6.25 μM, 12.5 μM, 25 μM, 50 μM, and 100 μM (top sensor) concentrations (left panel) and at 3.13 μM, 6.25 μM, 12.5 μM, 25 μM, 50 μM, and 100 μM (top sensor) concentrations (right panel).
To obtain in vitro confirmation of the binding of the isolated compounds to the purified RACK1 protein, the small compound SD-29 and its structural analog SD29-12 were evaluated for their binding potential with the recombinant RACK1A proteins using the Surface Plasmon Resonance (SPR) chip. SPR experiments were carried out with a Biacore T200 equipped with a CM5 sensor chip. Briefly, recombinant RACK1A cysteine-tagged protein was immobilized on flow cell (FC) 2 in HEPES buffered saline (10 mM Hepes, pH 7.4, and 150 mM NaCl, 3 mM CaCl2)) using a thiol-coupling kit according to the manufacturer's protocol, resulting in immobilization levels of 4580 response units (RU). FC1 was only activated and inactivated and used as a reference. SD-29 stock solution was diluted to a final concentration of 100, 75, 50, 25, 10 μM and 1 μM injected in 10 mM Hepes, 150 mM NaCl, 3 mM CaCl2), 1% DMSO, and 0.5% P20. Each injection was repeated three times for 60 s. […] KD50 is calculated by the equation: KD50=kd/ka; kd—dissociation rate constant, ka—association rate constant. […]

The target in a further test is T2, RACK1 (Homo sapiens, UniProt P63244).
T2 construct: endogenous in cells; host or cells: HEp-2 cells (human laryngeal carcinoma line), virus-infected
The test is described as follows: RACK1 protein western blot in HSV-1 infected HEp-2 cells. Format: cell-based. As to conditions: pre-treated 24 hours at 100 μM; 24 h after HSV-1 infection. On the procedure:
The virus used in this diagram is an HSV-1 F strain expressing luciferase (R8411 mutant) under the control of the ICP27 promoter and was a gift from Prof. Bernard Roizman (University of Chicago). HEp-2 cells were grown to 80-90% confluency in Dulbecco's Modified Eagle's medium (DMEM) supplemented with 10% fetal calf serum (PCS) and 1% penicillin-streptomycin (PS) and fungicide. The HSV-1 virus and the indicated concentration of compound(s) were added and incubated for 24 h (A of FIG. 13 and B of FIG. 13) and for 48 h in panel C samples. The luciferase signals were imaged and quantified in a Perkin Elmer IVIS Spectrum Imaging system. […] Three replicates from two separate experiments were combined to generate the average and the standard error bar. […] The compound(s) inhibit Y248 phosphorylation of RACK1 protein.
Proteins were separated by SDS-PAGE (25 μg loaded in each lane), transferred to nitrocellulose membranes (Amersham Inc., Piscataway, N.J., USA), and blocked with 5% nonfat milk for 60 min at room temperature. Membranes were incubated overnight at 4° C. with primary antibody, followed by incubation with a horseradish peroxidase-coupled secondary antibody and detection with enhanced chemiluminescence (Pierce, Rockford, Ill., USA), according to standard methods. […]
(Immunoblotting shows a protein as a band on a membrane.)

pKd: −log10 of the molar value.

T1 sequence (Q6L4F8 whole entry): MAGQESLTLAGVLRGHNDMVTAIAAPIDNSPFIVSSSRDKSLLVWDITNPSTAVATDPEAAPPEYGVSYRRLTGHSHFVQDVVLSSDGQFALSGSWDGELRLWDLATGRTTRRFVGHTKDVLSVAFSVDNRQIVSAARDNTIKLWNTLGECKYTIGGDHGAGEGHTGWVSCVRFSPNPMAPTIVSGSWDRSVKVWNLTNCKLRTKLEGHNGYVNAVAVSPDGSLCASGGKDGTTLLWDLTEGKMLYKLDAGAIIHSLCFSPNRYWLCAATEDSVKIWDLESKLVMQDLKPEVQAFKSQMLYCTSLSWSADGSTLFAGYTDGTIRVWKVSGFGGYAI

On to `Nn1c(S)nnc1-c1ccc(F)cc1` [SD-29], for which the pKd in test [1] was 4.38. In addition, the “production of RACK1” value on RACK1 is recorded as “reduced the production of RACK1”.
